Measurements reported in patent US20090143279A1 (priority 2007, published 2009).
Like-named read-outs stand apart in the source and are kept apart here.

Key:
cytochrome c = type: cell-based, mouse
nuOXPHOS transcripts = type: cell-based, mouse
reactive oxygen species = type: cell-based, mouse
[1] = test system: cellular dehydrogenase activity
mtOXPHOS transcripts = type: cell-based, mouse
OXPHOS gene expression = type: cell-based, mouse
[2] = test system: mitochondrial membrane potential; type: cell-based, mouse
[3] = Conc 20 μM, normalized score vs mock-treated (DMSO) wells
[4] = composite Z-score vs DMSO, Conc 20 μM
[5] = 20 μM, composite Z-score vs DMSO
[6] = composite Z-score vs mock-treated (DMSO) wells, Conc 20 μM
[7] = normalized composite Z-score vs mock-treated (DMSO) wells, Conc 20 μM
[8] = composite Z-score vs mock-treated (DMSO) wells, concentration of each compound in μM

**Q.** Which “cyt c (composite Z-score)” value (cytochrome c; [3]) does the source give for `CCOc1ccc(C(=O)c2ccc(O)c(O)c2O)cc1` [2,3,4-trihydroxy-4′-ethoxybenzophenone] here?
**A.** 0.440

**Q.** What about the “nucOX (composite Z-score)” value (nuOXPHOS transcripts; [3]) of the same compound?
**A.** −0.896

**Q.** What about the “Viability (composite Z-score)” value (C2C12 myotubes; [3]) of the same compound?
**A.** −0.413

**Q.** And the “ROS (composite Z-score)” value (reactive oxygen species; [3])?
**A.** 0.052

**Q.** And the “MTT (composite Z-score)” value [1, 3]?
**A.** −2.368

**Q.** What about the “mitoOX (composite Z-score)” value (mtOXPHOS transcripts; [3]) of the same compound?
**A.** −0.478

**Q.** What about the “GE-HTS (composite Z-score)” value (OXPHOS gene expression; [3]) of the same compound?
**A.** −0.823

**Q.** What about the “ΔΨm (composite Z-score)” value [2, 3] of the same compound?
**A.** −1.185

**Q.** How did the cyt c (cytochrome c; [4]) turn out when `O=C1CC[C@]23/C=C/C(=O)NCCCCNCCCNC(=O)/C=C/c4ccc(c2c4)O[C@@H]3C1` [lunarine] was run?
**A.** 0.685

**Q.** And the nucOX (nuOXPHOS transcripts; [4])?
**A.** −0.880

**Q.** What about the Viability (C2C12 myotubes; [4]) of the same compound?
**A.** −0.579

**Q.** And the ROS (reactive oxygen species; [4])?
**A.** 0.385

**Q.** And the MTT [1, 4]?
**A.** −0.938

**Q.** And the mitoOX (mtOXPHOS transcripts; [4])?
**A.** −0.856

**Q.** And the GE-HTS (OXPHOS gene expression; [4])?
**A.** −0.945

**Q.** And the ΔΨm [2, 4]?
**A.** −0.795

**Q.** Which results are given for `C=CCc1ccc(O)c(OC)c1` [eugenol]?
**A.** cyt c (cytochrome c; [5]): 0.307; nucOX (nuOXPHOS transcripts; [5]): −0.166; Viability (C2C12 myotubes; [5]): −0.943; ROS (reactive oxygen species; [5]): 1.068; MTT [1, 5]: −0.243; mitoOX (mtOXPHOS transcripts; [5]): −0.320; GE-HTS (OXPHOS gene expression; [5]): −0.254; ΔΨm [2, 5]: −0.816

**Q.** With `COc1cc(O)c(C(=O)c2ccccc2)cc1O` [cearoin] as the compound, how does the cyt c (cytochrome c; [6]) read?
**A.** −1.478

**Q.** And the nucOX (nuOXPHOS transcripts; [6])?
**A.** −1.568

**Q.** What about the Viability (C2C12 myotubes; [6]) of the same compound?
**A.** −1.078

**Q.** And the ROS (reactive oxygen species; [6])?
**A.** −2.274

**Q.** What about the MTT [1, 6] of the same compound?
**A.** −2.331

**Q.** And the mitoOX (mtOXPHOS transcripts; [6])?
**A.** −1.603

**Q.** What about the GE-HTS (OXPHOS gene expression; [6]) of the same compound?
**A.** −1.672

**Q.** What about the ΔΨm [2, 6] of the same compound?
**A.** −1.006

**Q.** Which cyt c (cytochrome c; [6]) does the source give for `COc1c2c(cc3c1OCO3)CC[N+](C)=C2` [cotarnine] here?
**A.** 0.068

**Q.** What about the nucOX (nuOXPHOS transcripts; [6]) of the same compound?
**A.** 0.159

**Q.** What about the Viability (C2C12 myotubes; [6]) of the same compound?
**A.** −0.398

**Q.** And the ROS (reactive oxygen species; [6])?
**A.** −0.007

**Q.** And the MTT [1, 6]?
**A.** −0.587

**Q.** What about the mitoOX (mtOXPHOS transcripts; [6]) of the same compound?
**A.** −0.151

**Q.** And the GE-HTS (OXPHOS gene expression; [6])?
**A.** 0.049

**Q.** And the ΔΨm [2, 6]?
**A.** −1.103

**Q.** Which results are given for `C[C@@H]1O[C@@H](O[C@H]2[C@H](O[C@H]3CC[C@@]4(C)[C@@H](CC[C@]5(C)[C@@H]4CC=C4[C@@H]6CC(C)(C)CC[C@]6(C(=O)O)CC[C@]45C)[C@]3(C)CO)OC[C@H](O)[C@@H]2O)[C@H](O)[C@H](O)[C@H]1O` [sapindoside A]?
**A.** cyt c (cytochrome c; [4]): −4.058; nucOX (nuOXPHOS transcripts; [4]): −1.786; Viability (C2C12 myotubes; [4]): −3.886; ROS (reactive oxygen species; [4]): −2.825; MTT [1, 4]: −4.558; mitoOX (mtOXPHOS transcripts; [4]): 0.322; GE-HTS (OXPHOS gene expression; [4]): −1.176; ΔΨm [2, 4]: −3.760

**Q.** `COc1ccc([C@H]2Oc3cc(OC)cc(OC)c3C[C@H]2O)cc1` [epiafzelechin trimethyl ether] was tested. Which cyt c (cytochrome c; [7]) did it give?
**A.** 1.099

**Q.** And the nucOX (nuOXPHOS transcripts; [7])?
**A.** −0.134

**Q.** What about the Viability (C2C12 myotubes; [7]) of the same compound?
**A.** 0.557

**Q.** And the ROS (reactive oxygen species; [7])?
**A.** −0.190

**Q.** What about the MTT [1, 7] of the same compound?
**A.** −0.884

**Q.** What about the mitoOX (mtOXPHOS transcripts; [7]) of the same compound?
**A.** 0.350

**Q.** And the GE-HTS (OXPHOS gene expression; [7])?
**A.** 0.019

**Q.** What about the ΔΨm [2, 7] of the same compound?
**A.** −0.324

**Q.** What does the source list for `C[C@@H]1[C@H](O)[C@@H](C)/C=C/C=C/CC/C=C/C=C/C=C/C=C/C(O[C@H]2O[C@H](C)[C@@H](O)[C@H](N)[C@@H]2O)CC2O[C@](O)(CC(O)C(O)CCC(O)CC(O)CC(O)CC(=O)O[C@H]1C)CC(O)C2C(=O)O` (some centres unmarked) [nystatine]?
**A.** cyt c (cytochrome c; [8]): 0.061; nucOX (nuOXPHOS transcripts; [8]): −0.272; Viability (C2C12 myotubes; [8]): −0.430; ROS (reactive oxygen species; [8]): 0.765; MTT [1, 8]: −1.147; mitoOX (mtOXPHOS transcripts; [8]): −0.683; GE-HTS (OXPHOS gene expression; [8]): −0.436; ΔΨm [2, 8]: −0.660

**Q.** How did the cyt c (cytochrome c; [5]) turn out when `NC(=O)c1ccc[n+]([C@@H]2O[C@H](COP(=O)([O-])OP(=O)(O)OC[C@H]3O[C@@H](n4cnc5c(N)ncnc54)[C@H](OP(=O)(O)O)[C@@H]3O)[C@@H](O)[C@H]2O)c1` was run?
**A.** 0.101

**Q.** What about the nucOX (nuOXPHOS transcripts; [5]) of the same compound?
**A.** −0.307

**Q.** What about the Viability (C2C12 myotubes; [5]) of the same compound?
**A.** −0.562

**Q.** What about the ROS (reactive oxygen species; [5]) of the same compound?
**A.** −0.038

**Q.** And the MTT [1, 5]?
**A.** −1.286

**Q.** And the mitoOX (mtOXPHOS transcripts; [5])?
**A.** −0.615

**Q.** And the GE-HTS (OXPHOS gene expression; [5])?
**A.** −0.424

**Q.** And the ΔΨm [2, 5]?
**A.** −0.582

**Q.** How did the cyt c (cytochrome c; [6]) turn out when `CCN1CCN(C(=O)N[C@@H](C(=O)N[C@@H]2C(=O)N3C(C(=O)O)=C(CSc4nnnn4C)CS[C@H]23)c2ccc(O)cc2)C(=O)C1=O` [cefoperazone] was run?
**A.** 1.001

**Q.** What about the nucOX (nuOXPHOS transcripts; [6]) of the same compound?
**A.** 0.013

**Q.** What about the Viability (C2C12 myotubes; [6]) of the same compound?
**A.** 0.097

**Q.** What about the ROS (reactive oxygen species; [6]) of the same compound?
**A.** −0.295

**Q.** What about the MTT [1, 6] of the same compound?
**A.** −0.793

**Q.** And the mitoOX (mtOXPHOS transcripts; [6])?
**A.** 0.367

**Q.** What about the GE-HTS (OXPHOS gene expression; [6]) of the same compound?
**A.** 0.130

**Q.** And the ΔΨm [2, 6]?
**A.** −0.908
